≈ marks a conversion by molar mass, not a printed value. A value given as a limit tells only on which side of the number the result lay.

The nature of data set [1]: Equilibrium aqueous solubility of the compound at pH 7.5 after 20 hrs by HPLC method. It is filed as physicochemical.
Data set [2] can be described thus: Oral bioavailability in CD-1 mouse at 10 mg/kg by LC-MS/MS method. It is filed as ADME, organism-based. The conditions noted are these: in vivo.
For data set [3], the target named is T1, C-1-tetrahydrofolate synthase, cytoplasmic (Homo sapiens, UniProt P11586).
T1 sequence (P11586 whole entry): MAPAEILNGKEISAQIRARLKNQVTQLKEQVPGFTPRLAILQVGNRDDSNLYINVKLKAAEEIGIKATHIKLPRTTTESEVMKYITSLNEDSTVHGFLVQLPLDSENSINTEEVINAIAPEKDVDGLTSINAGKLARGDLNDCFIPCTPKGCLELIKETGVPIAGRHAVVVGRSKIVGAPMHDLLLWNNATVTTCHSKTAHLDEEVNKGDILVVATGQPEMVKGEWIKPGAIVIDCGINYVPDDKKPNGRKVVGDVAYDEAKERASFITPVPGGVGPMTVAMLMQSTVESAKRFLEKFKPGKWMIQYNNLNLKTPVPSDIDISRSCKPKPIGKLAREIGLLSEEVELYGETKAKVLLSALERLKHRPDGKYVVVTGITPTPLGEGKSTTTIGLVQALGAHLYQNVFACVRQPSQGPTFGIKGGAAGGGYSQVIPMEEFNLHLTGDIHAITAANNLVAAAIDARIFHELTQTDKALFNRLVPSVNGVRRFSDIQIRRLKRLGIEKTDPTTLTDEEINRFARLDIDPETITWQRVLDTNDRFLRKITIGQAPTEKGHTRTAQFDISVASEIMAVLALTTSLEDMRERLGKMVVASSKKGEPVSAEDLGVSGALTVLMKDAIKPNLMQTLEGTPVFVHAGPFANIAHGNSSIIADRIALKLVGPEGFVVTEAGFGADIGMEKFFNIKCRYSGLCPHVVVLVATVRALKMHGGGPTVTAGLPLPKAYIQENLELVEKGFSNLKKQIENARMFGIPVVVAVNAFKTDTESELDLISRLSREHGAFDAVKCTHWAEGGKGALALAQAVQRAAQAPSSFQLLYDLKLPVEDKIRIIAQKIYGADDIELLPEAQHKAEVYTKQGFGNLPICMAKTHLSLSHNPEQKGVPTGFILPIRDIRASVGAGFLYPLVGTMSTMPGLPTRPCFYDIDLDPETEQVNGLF
Nature of the data set: Inhibition of MTHFD1 (unknown origin) using NADP/5,10-methylene THF as substrate after 30 mins by HPLC method.

The nature of data set [4]: Antitumor activity against human MDA-MB-231met2 cells xenografted in athymic nude mouse assessed as tumor volume at 60 mg/kg, bid administered via oral gavage for 22 days relative to control. It is filed as functional.
The test system of data set [5] is Mus musculus. Put plainly: Toxicity in athymic nude mouse xenografted with human MDA-MB-231met2 cells assessed as mortality at 30 to 60 mg/kg, bid administered via oral gavage for 22 days. It is filed as organism-based. The conditions noted are these: in vivo, 528 h.
The test system of data set [6] is Mus musculus. Nature of the data set: In vivo inhibition of AICARFT in tumor of athymic nude mouse xenografted with human MDA-MB-231met2 cells assessed as increase in AICAr levels at 60 mg/kg, bid administered via oral gavage for 22 days relative to control. It is filed as functional.

In the case of `O=c1[nH]ccc2cc(F)c(NS(=O)(=O)c3ccc(N4CC[C@@H](O)C4)s3)cc12`, in data set [1], the thermodynamic solubility at 20 h was 20 µg/mL (≈ 48.8 µM). Moreover, in data set [2], the bioavailability is 25%. Besides, the IC50 in data set [3] is above 100 µM. For the same molecule, the figures for the Activity (in data set [4]; with Mus musculus [5]) were -1% and “Non-Toxic”, respectively. Further, the “fold change (FC)” value with Mus musculus [6] worked out at 3.

The record behind these values is ChEMBL document CHEMBL4020815 (J Med Chem, 2017).
